Experimental findings from ChEMBL document CHEMBL1125472, “5-lipoxygenase: properties, pharmacology, and the quinolinyl(bridged)aryl class of inhibitors” (J Med Chem, 1992) are described below.

Assay [1] addresses T1, Cysteinyl leukotriene receptor 1 (Cavia porcellus, UniProt Q2NNR5).
T1 sequence (Q2NNR5 whole entry): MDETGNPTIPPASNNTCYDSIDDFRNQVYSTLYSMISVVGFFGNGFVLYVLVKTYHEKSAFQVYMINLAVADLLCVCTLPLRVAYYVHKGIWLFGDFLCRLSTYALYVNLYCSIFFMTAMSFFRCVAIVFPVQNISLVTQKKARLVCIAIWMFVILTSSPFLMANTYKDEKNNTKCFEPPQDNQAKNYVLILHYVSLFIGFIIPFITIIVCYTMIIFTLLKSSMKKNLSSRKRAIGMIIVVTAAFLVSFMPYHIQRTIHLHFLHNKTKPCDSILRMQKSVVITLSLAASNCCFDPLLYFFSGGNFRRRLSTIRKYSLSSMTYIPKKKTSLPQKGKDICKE
Kind of assay: The compound was tested for binding affinity against Cysteinyl leukotriene D4 receptor in a soluble guinea pig LTD4 receptor preparation.

The species entered for assay [2] is Cavia porcellus. Kind of assay: The compound was tested for blocking of LTD4-induced contractions of guinea pig trachea. The following applies: read-out: pA2 (converted). The class given is functional.
Assay [3] has as its target T2, Polyunsaturated fatty acid 5-lipoxygenase (Rattus norvegicus, UniProt P12527).
T2 sequence (P12527 whole entry): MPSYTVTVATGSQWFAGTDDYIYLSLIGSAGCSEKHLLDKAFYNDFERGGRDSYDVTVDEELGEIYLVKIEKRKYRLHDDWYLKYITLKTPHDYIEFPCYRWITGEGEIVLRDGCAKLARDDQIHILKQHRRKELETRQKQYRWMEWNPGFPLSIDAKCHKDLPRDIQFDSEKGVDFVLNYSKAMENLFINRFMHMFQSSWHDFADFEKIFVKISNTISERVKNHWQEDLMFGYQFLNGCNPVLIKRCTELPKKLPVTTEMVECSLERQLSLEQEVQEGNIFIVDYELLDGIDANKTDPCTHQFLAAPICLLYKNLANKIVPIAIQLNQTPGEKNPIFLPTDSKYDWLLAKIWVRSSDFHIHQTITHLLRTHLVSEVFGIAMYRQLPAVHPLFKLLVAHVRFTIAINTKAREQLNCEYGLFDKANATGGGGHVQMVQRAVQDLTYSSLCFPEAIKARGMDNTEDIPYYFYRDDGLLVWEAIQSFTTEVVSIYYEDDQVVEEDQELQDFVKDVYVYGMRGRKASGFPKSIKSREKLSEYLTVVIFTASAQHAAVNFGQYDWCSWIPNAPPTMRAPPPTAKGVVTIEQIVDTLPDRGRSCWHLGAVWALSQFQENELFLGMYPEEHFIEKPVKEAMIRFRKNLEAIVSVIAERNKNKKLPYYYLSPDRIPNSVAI
Kind of assay: The compound was tested for inhibitory activity against 5-lipoxygenase in rat RBL-1. The format is cell-based.

Assay [4] addresses T3, Prostaglandin G/H synthase (cyclooxygenase) (Mus musculus, UniProt P22437+Q05769).
T3 sequence (P22437 whole entry): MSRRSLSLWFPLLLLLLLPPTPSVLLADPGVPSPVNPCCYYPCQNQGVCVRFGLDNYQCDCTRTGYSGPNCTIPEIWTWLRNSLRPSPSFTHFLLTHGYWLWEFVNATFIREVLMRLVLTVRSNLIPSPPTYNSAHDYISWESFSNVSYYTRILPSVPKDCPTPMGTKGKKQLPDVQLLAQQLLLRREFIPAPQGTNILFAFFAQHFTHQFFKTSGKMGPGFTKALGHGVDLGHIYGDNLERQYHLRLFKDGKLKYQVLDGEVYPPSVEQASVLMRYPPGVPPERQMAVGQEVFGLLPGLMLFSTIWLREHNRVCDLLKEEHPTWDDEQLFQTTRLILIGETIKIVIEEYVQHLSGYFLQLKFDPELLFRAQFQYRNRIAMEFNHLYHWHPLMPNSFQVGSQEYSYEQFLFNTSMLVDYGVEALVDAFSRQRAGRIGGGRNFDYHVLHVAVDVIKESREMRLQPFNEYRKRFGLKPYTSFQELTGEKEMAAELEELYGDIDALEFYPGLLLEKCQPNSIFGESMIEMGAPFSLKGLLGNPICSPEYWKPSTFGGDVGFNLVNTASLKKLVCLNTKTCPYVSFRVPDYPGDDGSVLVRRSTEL
T3 sequence (Q05769 whole entry): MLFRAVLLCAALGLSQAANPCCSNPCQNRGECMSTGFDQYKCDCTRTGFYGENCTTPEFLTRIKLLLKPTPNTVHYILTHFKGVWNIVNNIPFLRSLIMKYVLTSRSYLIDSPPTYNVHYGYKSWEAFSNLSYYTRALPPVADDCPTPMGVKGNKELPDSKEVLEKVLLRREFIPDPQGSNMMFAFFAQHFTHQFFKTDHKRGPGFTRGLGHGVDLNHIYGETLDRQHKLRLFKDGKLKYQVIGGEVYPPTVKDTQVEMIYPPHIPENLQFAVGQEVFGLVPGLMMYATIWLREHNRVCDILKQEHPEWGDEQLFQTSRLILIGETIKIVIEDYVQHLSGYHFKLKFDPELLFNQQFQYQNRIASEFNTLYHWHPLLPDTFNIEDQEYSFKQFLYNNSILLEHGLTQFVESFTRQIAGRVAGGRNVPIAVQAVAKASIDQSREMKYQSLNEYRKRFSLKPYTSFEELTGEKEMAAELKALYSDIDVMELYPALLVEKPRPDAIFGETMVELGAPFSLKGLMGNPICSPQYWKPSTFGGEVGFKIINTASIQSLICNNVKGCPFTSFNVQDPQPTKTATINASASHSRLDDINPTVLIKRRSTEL
Put plainly: The compound was tested for inhibitory activity against Prostaglandin G/H synthase in mouse macrophage. The format is protein assay.

The target in assay [5] is T4, Polyunsaturated fatty acid 5-lipoxygenase (Homo sapiens, UniProt P09917).
T4 sequence (P09917 whole entry): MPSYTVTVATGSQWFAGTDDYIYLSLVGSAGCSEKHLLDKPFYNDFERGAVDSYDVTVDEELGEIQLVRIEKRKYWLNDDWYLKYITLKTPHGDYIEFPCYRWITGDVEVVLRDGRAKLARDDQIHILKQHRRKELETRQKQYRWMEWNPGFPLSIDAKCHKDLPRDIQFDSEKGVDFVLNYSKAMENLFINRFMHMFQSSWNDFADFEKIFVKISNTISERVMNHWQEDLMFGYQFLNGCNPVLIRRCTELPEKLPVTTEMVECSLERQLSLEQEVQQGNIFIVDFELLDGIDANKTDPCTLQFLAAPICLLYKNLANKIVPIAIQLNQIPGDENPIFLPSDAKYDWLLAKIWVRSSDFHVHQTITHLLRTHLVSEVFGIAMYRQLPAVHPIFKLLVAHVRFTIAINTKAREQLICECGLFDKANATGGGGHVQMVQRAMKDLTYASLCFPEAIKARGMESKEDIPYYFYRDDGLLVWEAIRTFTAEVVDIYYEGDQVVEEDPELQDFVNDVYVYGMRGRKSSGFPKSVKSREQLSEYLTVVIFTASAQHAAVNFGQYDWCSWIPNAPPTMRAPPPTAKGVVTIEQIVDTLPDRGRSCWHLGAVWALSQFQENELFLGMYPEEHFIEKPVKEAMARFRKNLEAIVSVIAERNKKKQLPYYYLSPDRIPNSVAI
Put plainly: The compound was tested for inhibitory activity against 5-lipoxygenase in human polymorphonuclear leukocytes[PMNS]. The format is cell-based.

For assay [6], the target named is T5, Polyunsaturated fatty acid 5-lipoxygenase (Rattus norvegicus) (UniProt P12527).
T5 sequence (whole entry): T2 sequence (P12527 whole entry)
Kind of assay: The compound was tested for inhibition of isolated 5-Lipoxygenase.

In assay [7] the test system is RBL-2H3. Put plainly: The compound was tested for inhibition of translocation in SAR in RBL-2H3 cells. The class given is functional, Rattus norvegicus.
The species named for assay [8] is Mus musculus. Put plainly: The compound was tested for inhibition of thromboxane B2 synthesis. The format is functional, organism-based.
The species named for assay [9] is Mus musculus. Kind of assay: The compound was tested for inhibition of prostaglandin E2[PGE2] synthesis. The format is functional, organism-based.
Assay [10] is filed under the species Mus musculus. Put plainly: The compound was tested for inhibitory activity against LTC4 synthesis in mouse peritoneal macrophages. The format is functional.
Assay [11] concerns RBL-2H3. Put plainly: The compound was tested for inhibition LTC4 synthesis. The class given is functional, Rattus norvegicus.
For assay [12], the target named is Cyclooxygenase (Rattus norvegicus) (UniProt P35355+Q63921). Put plainly: The compound was tested for inhibition of Prostaglandin G/H synthase in rat polymorphonuclear leukocytes[PMNS] at 100 uM concentration. The class given is functional, cell-based.
Assay [13] relates to Mus musculus. Kind of assay: The effective dose for inhibition of mouse zymosan peritonitis (in vivo). The class given is functional.
The subject of assay [14] is Rattus norvegicus. Put plainly: The effective dose after peroral administration for antiinflammatory activity against rat carrageenan edema. The following applies: po. The format is functional.
Assay [15] concerns the target T2, Polyunsaturated fatty acid 5-lipoxygenase. Put plainly: The compound was tested for inhibitory activity against 5-lipoxygenase in rat polymorphonuclear leukocytes[PMNS] (in vitro). The class given is cell-based.

One may read the Ki as a measure of affinity in units of concentration, obtained from inhibition or displacement. As a reminder, the IC50 is the concentration at which inhibition is half-maximal. Usually ED50 stands for the dose at which the effect has come halfway, by size or by number of responders.

Sequence of Cyclooxygenase (Rattus norvegicus) (P35355 whole entry, looked up): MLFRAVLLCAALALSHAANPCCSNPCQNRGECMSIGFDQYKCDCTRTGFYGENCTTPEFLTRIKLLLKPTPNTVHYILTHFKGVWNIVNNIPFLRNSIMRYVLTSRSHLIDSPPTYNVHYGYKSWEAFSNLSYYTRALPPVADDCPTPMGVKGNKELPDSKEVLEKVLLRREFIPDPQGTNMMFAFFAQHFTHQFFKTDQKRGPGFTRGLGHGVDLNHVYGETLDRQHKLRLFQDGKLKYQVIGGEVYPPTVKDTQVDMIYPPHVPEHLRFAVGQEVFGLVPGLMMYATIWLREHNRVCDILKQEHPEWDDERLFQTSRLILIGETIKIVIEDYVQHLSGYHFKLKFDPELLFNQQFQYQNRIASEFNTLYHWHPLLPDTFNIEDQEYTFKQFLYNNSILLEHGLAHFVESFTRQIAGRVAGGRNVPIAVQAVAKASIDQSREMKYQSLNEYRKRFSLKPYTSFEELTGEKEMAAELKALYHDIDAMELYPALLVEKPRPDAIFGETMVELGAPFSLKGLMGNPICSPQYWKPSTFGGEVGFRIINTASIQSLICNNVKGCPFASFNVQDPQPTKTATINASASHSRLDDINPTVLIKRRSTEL
Sequence of Cyclooxygenase (Rattus norvegicus) (Q63921 whole entry, looked up): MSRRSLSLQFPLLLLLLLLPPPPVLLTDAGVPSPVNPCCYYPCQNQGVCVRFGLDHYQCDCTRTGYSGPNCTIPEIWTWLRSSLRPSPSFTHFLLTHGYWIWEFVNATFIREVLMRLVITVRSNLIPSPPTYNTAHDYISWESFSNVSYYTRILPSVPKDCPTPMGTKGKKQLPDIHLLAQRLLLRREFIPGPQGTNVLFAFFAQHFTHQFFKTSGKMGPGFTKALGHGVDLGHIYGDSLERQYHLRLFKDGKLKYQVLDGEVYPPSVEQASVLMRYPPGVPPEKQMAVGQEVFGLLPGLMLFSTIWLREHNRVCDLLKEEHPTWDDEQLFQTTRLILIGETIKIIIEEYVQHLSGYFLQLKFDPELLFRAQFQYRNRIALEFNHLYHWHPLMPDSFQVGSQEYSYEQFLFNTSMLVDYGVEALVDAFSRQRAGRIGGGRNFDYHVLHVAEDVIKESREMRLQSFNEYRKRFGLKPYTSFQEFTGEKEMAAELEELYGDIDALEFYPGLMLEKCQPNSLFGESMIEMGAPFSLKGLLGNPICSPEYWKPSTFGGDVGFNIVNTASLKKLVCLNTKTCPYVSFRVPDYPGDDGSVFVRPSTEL

`CCCc1c(OCCCCc2nnn[nH]2)ccc(C(C)=O)c1O` [TOMELUKAST] returned a Ki in [1] of 60 nM. Also, the Kb in [2] was 209 nM.

Take `CCN1C(=S)N(c2ccc(N3CCN(c4ccc(O)cc4)CC3)cc2)C(=O)C1(C)C`: the IC50 in assay [3] amounted to 500 nM.

Turning to `Cc1c(CC(=O)O)c2cc(OCc3ccc4ccccc4n3)ccc2n1Cc1ccc(Cl)cc1`, in assay [4], the IC50 stood at 4 nM.

With `O=C(O)c1ccc(CN(Cc2cccc(F)c2)c2ccc(OCc3ccc4ccccc4n3)cc2)cc1`, the IC50 in assay [5] amounted to 20 nM.

Take `COC(=O)CCC(=O)N(O)c1cccc(OCc2ccc3ccccc3n2)c1`: the Inhibition in assay [6] worked out at 1530 nM; in assay [7] it was 750 nM; in [11] it was 780 nM. The IC50 in assay [8] turned out to be 4520 nM; in [9], 7200 nM; in assay [10], 450 nM.

In assay [12], `CC(C(=O)O)c1ccc2cc(OCc3ccc4ccccc4n3)ccc2c1` (stereo not given) yielded an Inhibition of 30%. For the same compound, the ED50 stood at 11.1 mg/kg in assay [13] and 75 mg/kg in [14]. In assay [15], this compound registered a concentration for half-maximal inhibition (IC50) of 130 nM.
